# In the supplement of paper PMC10307832:
# What was measured:
# Assay in all cases: relative viability (nuclei count vs DMSO), 5 days (fraction); higher = more cells survive
# NCI-H1993 = system: NCI-H1993
# Procedure, shortened: (§1)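 After 5 days of treatment, lung cancer cells in 1536-well plates were fixed and stained in a single step (final 0.05% Triton X-100, 1% formaldehyde, 1 ug/ml Hoechst) and their nuclei counted on 4× images. Treatment had been applied by pin tool the day after seeding as one drug alone or as a fixed anchor-drug dose with five library-drug doses (not always all listed) in √10 steps. Relative viability is the nuclei count of treated wells divided by that of vehicle wells, and values are medians of duplicate plates.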
# NCI-H2405 = system: NCI-H2405
# Procedure, shortened: as §1
# NCI-H1395 = system: NCI-H1395
# Procedure, shortened: as §1
# NCI-H2087 = system: NCI-H2087
# Procedure, shortened: as §1
# NCI-H1792 = system: NCI-H1792
# Procedure, shortened: as §1
# NCI-H2342 = system: NCI-H2342
# Procedure, shortened: as §1
# LOU-NH91 = system: LOU-NH91
# Procedure, shortened: as §1
# HARA = system: HARA
# Procedure, shortened: as §1
# BEN = system: BEN
# Procedure, shortened: as §1
# HCC-827 = system: HCC-827
# Procedure, shortened: as §1
# EKVX = system: EKVX
# Procedure, shortened: as §1
# NCI-H1355 = system: NCI-H1355
# Procedure, shortened: as §1
# NCI-H522 = system: NCI-H522
# Procedure, shortened: as §1
# NCI-H1437 = system: NCI-H1437
# Procedure, shortened: as §1
# HCC-366 = system: HCC-366
# Procedure, shortened: as §1
# NCI-H1734 = system: NCI-H1734
# Procedure, shortened: as §1
# NCI-H647 = system: NCI-H647
# Procedure, shortened: as §1
# NCI-H2170 = system: NCI-H2170
# Procedure, shortened: as §1
smiles,measurement,setting,value
CC(=O)O[C@@]12CO[C@@H]1C[C@H](O)[C@@]1(C)C(=O)[C@H](O)C3=C(C)[C@@H](OC(=O)[C@H](O)[C@@H](NC(=O)OC(C)(C)C)c4ccccc4)C[C@@](O)([C@@H](OC(=O)c4ccccc4)[C@H]21)C3(C)C [Docetaxel] + NC(=O)Nc1cc(-c2cccc(F)c2)sc1C(=O)N[C@H]1CCCNC1 [AZD7762] (partner 0.2 µM),relative viability,NCI-H1993; first compound 0.0002 µM,0.873
same,relative viability,NCI-H1993; first compound 0.000632 µM,0.739
same,relative viability,NCI-H1993; first compound 0.002 µM,0.603
same,relative viability,NCI-H1993; first compound 0.006325 µM,0.477
same,relative viability,NCI-H1993; first compound 0.02 µM,0.303
same,relative viability,NCI-H2405; first compound 0.0002 µM,0.742
same,relative viability,NCI-H2405; first compound 0.000632 µM,0.582
same,relative viability,NCI-H2405; first compound 0.002 µM,0.46
same,relative viability,NCI-H2405; first compound 0.006325 µM,0.349
same,relative viability,NCI-H2405; first compound 0.02 µM,0.248
same,relative viability,NCI-H1395; first compound 0.0002 µM,0.421
same,relative viability,NCI-H1395; first compound 0.000632 µM,0.38
same,relative viability,NCI-H1395; first compound 0.002 µM,0.379
same,relative viability,NCI-H1395; first compound 0.006325 µM,0.343
same,relative viability,NCI-H1395; first compound 0.02 µM,0.32
same,relative viability,NCI-H2087; first compound 0.0002 µM,1.23
same,relative viability,NCI-H2087; first compound 0.000632 µM,0.822
same,relative viability,NCI-H2087; first compound 0.002 µM,0.203
same,relative viability,NCI-H2087; first compound 0.006325 µM,0.236
same,relative viability,NCI-H2087; first compound 0.02 µM,0.108
same,relative viability,NCI-H1792; first compound 0.0002 µM,0.666
same,relative viability,NCI-H1792; first compound 0.000632 µM,0.465
same,relative viability,NCI-H1792; first compound 0.002 µM,0.24
same,relative viability,NCI-H1792; first compound 0.006325 µM,0.0705
same,relative viability,NCI-H1792; first compound 0.02 µM,0.0512
same,relative viability,NCI-H2342; first compound 0.0002 µM,0.46
same,relative viability,NCI-H2342; first compound 0.000632 µM,0.56
same,relative viability,NCI-H2342; first compound 0.002 µM,0.405
same,relative viability,NCI-H2342; first compound 0.006325 µM,0.41
same,relative viability,NCI-H2342; first compound 0.02 µM,0.363
same,relative viability,LOU-NH91; first compound 0.0002 µM,0.748
same,relative viability,LOU-NH91; first compound 0.000632 µM,0.662
same,relative viability,LOU-NH91; first compound 0.002 µM,0.509
same,relative viability,LOU-NH91; first compound 0.006325 µM,0.385
same,relative viability,LOU-NH91; first compound 0.02 µM,0.342
same,relative viability,HARA; first compound 0.0002 µM,0.273
same,relative viability,HARA; first compound 0.000632 µM,0.201
same,relative viability,HARA; first compound 0.002 µM,0.105
same,relative viability,HARA; first compound 0.006325 µM,0.193
same,relative viability,HARA; first compound 0.02 µM,0.076
same,relative viability,BEN; first compound 0.0002 µM,0.553
same,relative viability,BEN; first compound 0.000632 µM,0.822
same,relative viability,BEN; first compound 0.002 µM,0.483
same,relative viability,BEN; first compound 0.006325 µM,0.412
same,relative viability,BEN; first compound 0.02 µM,0.307
same,relative viability,HCC-827; first compound 0.0002 µM,0.154
same,relative viability,HCC-827; first compound 0.000632 µM,0.239
same,relative viability,HCC-827; first compound 0.002 µM,0.165
same,relative viability,HCC-827; first compound 0.006325 µM,0.165
same,relative viability,HCC-827; first compound 0.02 µM,0.142
same,relative viability,EKVX; first compound 0.0002 µM,0.736
same,relative viability,EKVX; first compound 0.000632 µM,0.638
same,relative viability,EKVX; first compound 0.002 µM,0.407
same,relative viability,EKVX; first compound 0.006325 µM,0.249
same,relative viability,EKVX; first compound 0.02 µM,0.132
same,relative viability,NCI-H1355; first compound 0.0002 µM,0.698
same,relative viability,NCI-H1355; first compound 0.000632 µM,0.758
same,relative viability,NCI-H1355; first compound 0.002 µM,0.411
same,relative viability,NCI-H1355; first compound 0.02 µM,0.191
same,relative viability,NCI-H522; first compound 0.0002 µM,0.927
same,relative viability,NCI-H522; first compound 0.000632 µM,1.08
same,relative viability,NCI-H522; first compound 0.002 µM,0.622
same,relative viability,NCI-H522; first compound 0.006325 µM,0.484
same,relative viability,NCI-H522; first compound 0.02 µM,0.373
same,relative viability,NCI-H1437; first compound 0.0002 µM,1.08
same,relative viability,NCI-H1437; first compound 0.000632 µM,1.12
same,relative viability,NCI-H1437; first compound 0.002 µM,0.616
same,relative viability,NCI-H1437; first compound 0.006325 µM,0.281
same,relative viability,NCI-H1437; first compound 0.02 µM,0.141
same,relative viability,HCC-366; first compound 0.0002 µM,0.206
same,relative viability,HCC-366; first compound 0.000632 µM,0.0949
same,relative viability,HCC-366; first compound 0.002 µM,0.145
same,relative viability,HCC-366; first compound 0.006325 µM,0.0384
same,relative viability,HCC-366; first compound 0.02 µM,0.0132
same,relative viability,NCI-H1734; first compound 0.0002 µM,0.449
same,relative viability,NCI-H1734; first compound 0.000632 µM,0.384
same,relative viability,NCI-H1734; first compound 0.002 µM,0.199
same,relative viability,NCI-H1734; first compound 0.006325 µM,0.222
same,relative viability,NCI-H1734; first compound 0.02 µM,0.164
same,relative viability,NCI-H647; first compound 0.0002 µM,0.297
same,relative viability,NCI-H647; first compound 0.000632 µM,0.217
same,relative viability,NCI-H647; first compound 0.002 µM,0.0746
same,relative viability,NCI-H647; first compound 0.006325 µM,0.0816
same,relative viability,NCI-H647; first compound 0.02 µM,0.0266
same,relative viability,NCI-H2170; first compound 0.0002 µM,0.895
same,relative viability,NCI-H2170; first compound 0.000632 µM,0.722
same,relative viability,NCI-H2170; first compound 0.002 µM,0.581
same,relative viability,NCI-H2170; first compound 0.02 µM,0.131
